Results as given in patent US20040204577A1, “Novel peptide-forming enzyme gene” (Ajinomoto Co., Inc., priority 2003, published 2004).
Where a SMILES comes first, the peptide text is derived from it.

Key:
[1] = system: peptide-forming enzyme (Mono S fraction enzyme); assay: Enzyme substrate specificity (1)-(10), (13), (14): peptide production; format: biochemical, Empedobacter brevis; design: key to Formed peptide: +: those peptides for which production was confirmed but which were unable to be quantified due to the absence of a standard; a trace amount; conditions: pH 9.0, 25° C., 3 hours
Experimental: Ester specificity was examined in the case of using L-amino acid ester for the carboxy component. 2 μl of the same enzyme fraction as used in Example 5 was added to 100 μl of 100 mM borate buffer (pH 9.0) containing the carboxy components indicated in Table 4 at 100 mM, 200 mM L-glutamine and 10 mM EDTA, and allowed to react at 25° C. for 2 hours. HCl represents hydrochloride in Table 4.
Peptide production was examined in the case of using L-alanine methyl ester for the carboxy component and using various L-amino acids for the amine component.
Peptide production was examined in the case of using various types of L-amino acid methyl esters for the carboxy component and using L-glutamine for the amine component. 2 μl of the same enzyme fraction as used in Example 5 was added to 100 μl of 100 mM borate buffer (pH 9.0) containing the L-amino acid methyl ester hydrochloride salts (AA-OMe.HCl) shown in Table 6 at 100 mM, 150 mM L-glutamine and 10 mM EDTA, and allowed to react at 25° C. for 3 hours. […] Furthermore, Tween-80 was added to the reaction system to a final concentration of 0.1% in the case of using L-Trp-OMe and L-Tyr-OMe.
Peptide production was examined in the case of using various L-amino acid methyl esters for the carboxy component and various L-amino acids for the amine component. 2 μl of the same enzyme fraction as used in Example 5 was added to 100 μl of 100 mM borate buffer (pH 9.0) containing the L-amino acid methyl ester hydrochloride salts (AA-OMe.HCl) shown in Table 7 at 100 mM, the L-amino acids shown in Table 7 at 150 mM and 10 mM EDTA, and allowed to react at 25° C. for 3 hours. The “tr” indicates a trace amount. Furthermore, Tween-80 was added to the reaction system to a final concentration of 0.1% in the case of using L-Trp-OMe.
Peptide production was examined in the case of using the L or D forms of various amino acid methyl esters for the carboxy component, and the L or D forms of various amino acids for the amine component. 2 μl of the same enzyme fraction as used in Example 5 was added to 100 μl of 100 mM borate buffer (pH 9.0) containing the various amino acid methyl ester hydrochloride salts (AA-OMe HCl) shown in Table 8 at 100 mM, the various amino acids shown in Table 8 at 150 mM and 10 mM EDTA, and allowed to react at 25° C. for 3 hours. The “tr” indicates a trace amount.
Peptide production was examined using various L-amino acid amides for the carboxy component, and various L-amino acids for the amine component. 2 μl of the same enzyme fraction as that used in Example 5 was added to 100 μl of 100 mM borate buffer (pH 9.0) containing the L-amino acid amide hydrochloride salt (M-NH2.HCl) shown in Table 9 at 100 mM, the L-amino acids shown in Table 9 at 150 mM and 10 mM EDTA, and allowed to react at 25° C. for 3 hours.
Peptide production was examined in the case of using various L-alanine methyl esters for the carboxy component and C-protected L-amino acids for the amine component. 2 μl of the same enzyme fraction as used in Example 5 was added to 100 μl of 100 mM borate buffer (pH 9.0) containing the L-alanine methyl ester hydrochloride hydrochloride salt (Ala-OMe.HCl) shown in Table 10 at 100 mM, the L-amino acid amide hydrochloride salts shown in Table 10 at 150 mM and 10 mM EDTA, and allowed to react at 25° C. for 3 hours.
Peptide production was examined in the case of using various amino acid methyl esters for the carboxy component and methylamine for the amine component. 2 μl of the same enzyme fraction as used in Example 5 was added to 100 μl of 100 mM borate buffer (pH 9.0) containing the amino acid methyl ester hydrochloride salt (M-OMe.HCl) shown in Table 11 at 100 mM, the methylamine shown in Table 11 at 150 mM and 10 mM EDTA, and allowed to react at 25° C. for 3 hours.
Peptide production was examined in the case of using […] for the carboxy component or β-amino acid for the amine component.

[2] = system: enzyme derived from Sphingobacterium sp. strain FERM BP-8124 (SP-Sepharose HP fraction enzyme); assay: Enzyme substrate specificity (11), (12): peptide production; format: biochemical; design: key to Produced peptide (Table 15-1) / Produced peptide (Table 15-3) / Produced peptide (Table 15-4): +: those peptides for which production was confirmed but which were unable to be quantified due to the absence of a standard; a trace amount; conditions: carboxy component 100 mM, 0.33 units enzyme, pH 9.0, 25° C., 1.5 hours; for Produced peptide (Table 15-4): amides and methylamine; for Produced peptide (Table 15-2): L-Gln 150 mM
Description: Substrate specificity was examined for enzyme derived from Sphingobacterium sp. strain FERM BP-8124 (Depositary institution: the independent administrative corporation, National Institute of Advanced Industrial Science and Technology, International Patent Organism Depositary, Address of depositary institution: Chuo Dai-6, 1-1 Higashi 1-Chome, Tsukuba-shi, Ibaraki-ken, Japan, International deposit date: […] The amounts of various peptides formed in this reaction are shown in Table 15. The “+” mark indicates those peptides for which production was confirmed but which were unable to be quantified due to the absence of a standard, while “tr” indicates a trace amount. Furthermore, Tween-80 was added to the reaction system to a final concentration of 0.1% in the case of using L-Tyr-OMe. In addition, hydrochloride salts were used for all carboxy components. Substrate specificity with respect to oligopeptide production was examined for enzyme derived from Sphingobacterium sp. strain FERM BP-8124 (Depositary institution: the independent administrative corporation, National Institute of Advanced Industrial Science and Technology, International Patent Organism Depositary, Address of depositary institution: Chuo Dai-6, 1-1 Higashi 1-Chome, Tsukuba-shi, Ibaraki-ken, Japan, International deposit date: […] The amounts of each oligopeptide formed in this reaction are shown in Table 16. Furthermore, hydrochloride salts were used for all the carboxy components.

[3] = 100 mM L-alanine methyl ester hydrochloride, L-amino acid 150 mM
[4] = amino acid methyl ester hydrochloride 100 mM, methylamine 150 mM
[5] = L-amino acid methyl ester hydrochloride 100 mM, 150 mM L-glutamine
[6] = L-amino acid methyl ester hydrochloride 100 mM, L-amino acid 150 mM
[7] = L-amino acid amide hydrochloride as carboxy component 100 mM, L-amino acid 150 mM

| Compound | Formed peptide [1, 5] | Produced peptide (Table 15-2) [2] [mM] | Formed peptide [1, 6] [mM] | Produced peptide (Table 15-3) ([2]; amine component 150 mM) | also measured |
| --- | --- | --- | --- | --- | --- |
| C[C@H](N)C(=O)N1CCC[C@H]1C(=O)O [L-Ala-L-Pro] (H-Ala-Pro-OH) |  |  |  |  | Formed peptide [1, 3]: tr; Produced peptide (Table 15-1) ([2]; amine component 150 mM): 1.5 mM |
| C[C@H](N)C(=O)N[C@H](C(=O)O)[C@@H](C)O [L-Ala-L-Thr] (H-Ala-Thr-OH) |  |  |  |  | Formed peptide [1, 3]: 53.9 mM; Produced peptide (Table 15-1) ([2]; amine component 150 mM): 47.3 mM |
| C[C@H](N)C(=O)N[C@@H](Cc1c[nH]c2ccccc12)C(=O)O [L-Ala-L-Trp] (H-Ala-Trp-OH) |  |  |  |  | Formed peptide [1, 3]: 53.9 mM; Produced peptide (Table 15-1) ([2]; amine component 150 mM): 46.0 mM |
| C[C@H](N)C(=O)N[C@@H](Cc1ccc(O)cc1)C(=O)O [L-Ala-L-Tyr] (H-Ala-Tyr-OH) |  |  |  |  | Formed peptide [1, 3]: 17.6 mM; Produced peptide (Table 15-1) ([2]; amine component 150 mM): 11.1 mM |
| CC(C)[C@H](NC(=O)[C@H](C)N)C(=O)O [L-Ala-L-Val] (H-Ala-Val-OH) |  |  |  |  | Formed peptide [1, 3]: 20.8 mM; Produced peptide (Table 15-1) ([2]; amine component 150 mM): 10.9 mM |
| CNC(=O)C(C)N [L-Ala-methylamine] |  |  |  |  | Formed peptide [1, 4]: 0.3 mM; Produced peptide (Table 15-4) ([2]; amine component 150 mM): 0.6 mM |
| NC(=O)CC[C@H](NC(=O)[C@@H](N)CCCN=C(N)N)C(=O)O [L-Arg-L-Gln] (H-Arg-Gln-OH) | 7.1 mM | 17.2 |  |  |  |
| CSCC[C@H](NC(=O)[C@@H](N)CCCN=C(N)N)C(=O)O [L-Arg-L-Met] (H-Arg-Met-OH) |  |  | 0.7 | tr |  |
| NC(N)=NCCC[C@H](N)C(=O)N[C@@H](Cc1ccccc1)C(=O)O [L-Arg-L-Phe] |  |  | 1.9 | tr |  |
| NC(N)=NCCC[C@H](N)C(=O)N[C@@H](CO)C(=O)O [L-Arg-L-Ser] (H-Arg-Ser-OH) |  |  | 3.6 | 2.2 mM |  |
| NC(=O)CC[C@H](NC(=O)[C@@H](N)CCC(N)=O)C(=O)O [L-Gln-L-Gln] (H-Gln-Gln-OH) | 0.3 mM | 0.1 |  |  |  |
| CC[C@H](C)[C@H](N)C(=O)N[C@@H](CCC(N)=O)C(=O)O [L-Ile-L-Gln] (H-Ile-Gln-OH) | 8.4 mM | 6.4 |  |  |  |
| CC[C@H](C)[C@H](N)C(=O)N[C@@H](Cc1ccccc1)C(=O)O [L-Ile-L-Phe] (H-Ile-Phe-OH) |  |  | 5.2 | 1.5 mM |  |
| CC[C@H](C)[C@H](N)C(=O)N[C@@H](CO)C(=O)O [L-Ile-L-Ser] (H-Ile-Ser-OH) |  |  | 17.2 | 17.3 mM |  |
| CSCC[C@H](N)C(=O)N[C@@H](CCC(N)=O)C(=O)O [L-Met-L-Gln] (H-Met-Gln-OH) | 12.0 mM | 32.6 |  |  |  |
| NC(=O)CC[C@H](NC(=O)[C@@H](N)Cc1ccccc1)C(=O)O [L-Phe-L-Gln] | 0.9 mM | 0.8 |  |  | Formed peptide [1, 7]: 0.2 mM |

| Compound | Formed peptide [1, 5] | Produced peptide (Table 15-2) [2] [mM] | Formed peptide [1, 6] [mM] | Produced peptide (Table 15-3) ([2]; amine component 150 mM) | also measured |
| --- | --- | --- | --- | --- | --- |
| NC(=O)CC[C@H](NC(=O)[C@@H]1CCCN1)C(=O)O [L-Pro-L-Gln] (H-Pro-Gln-OH) | 2.2 mM | 1.8 |  |  |  |
| NC(=O)CC[C@H](NC(=O)[C@@H](N)CO)C(=O)O [L-Ser-L-Gln] (H-Ser-Gln-OH) | 24.0 mM | 12.9 |  |  |  |
| CSCC[C@H](NC(=O)[C@@H](N)CO)C(=O)O [L-Ser-L-Met] (H-Ser-Met-OH) |  |  | 12.5 | 7.6 mM |  |
| N[C@@H](CO)C(=O)N[C@@H](Cc1ccccc1)C(=O)O [L-Ser-L-Phe] |  |  | 20.3 | 4.3 mM |  |
| C[C@@H](O)[C@H](N)C(=O)NCC(=O)O [L-Thr-Gly] (H-Thr-Gly-OH) |  |  | 9.4 | 0.4 mM |  |
| C[C@H](NC(=O)[C@@H](N)[C@@H](C)O)C(=O)O [L-Thr-L-Ala] (H-Thr-Ala-OH) |  |  | 9.4 | 5.8 mM |  |
| C[C@@H](O)[C@H](N)C(=O)N[C@@H](CCC(N)=O)C(=O)O [L-Thr-L-Gln] (H-Thr-Gln-OH) | 81.9 mM | 36.1 |  |  | Formed peptide [1, 7]: 0.3 mM |
| CSCC[C@H](NC(=O)[C@@H](N)[C@@H](C)O)C(=O)O [L-Thr-L-Met] (H-Thr-Met-OH) |  |  | 38.6 | 28.9 mM |  |
| CC(C)[C@H](NC(=O)[C@@H](N)[C@@H](C)O)C(=O)O [L-Thr-L-Val] (H-Thr-Val-OH) |  |  | 0.7 | 1.3 mM |  |
| CNC(=O)[C@@H](N)[C@@H](C)O [L-Thr-methylamine] |  |  |  |  | Formed peptide [1, 4]: 0.2 mM; Produced peptide (Table 15-4) ([2]; amine component 150 mM): 0.3 mM |
| NC(=O)CC[C@H](NC(=O)[C@@H](N)Cc1ccc(O)cc1)C(=O)O [L-Tyr-L-Gln] (H-Tyr-Gln-OH) | 3.4 mM | 0.6 |  |  |  |
| CC(C)[C@H](N)C(=O)N[C@@H](CCC(N)=O)C(=O)O [L-Val-L-Gln] (H-Val-Gln-OH) | 15.4 mM | 8.2 |  |  |  |
| CC(C)[C@H](N)C(=O)N[C@@H](Cc1ccccc1)C(=O)O [L-Val-L-Phe] (H-Val-Phe-OH) |  |  | 6.1 | 1.0 mM |  |
| CC(C)[C@H](N)C(=O)N[C@@H](CO)C(=O)O [L-Val-L-Ser] (H-Val-Ser-OH) |  |  | 30.8 | 31.9 mM |  |
| NC(=O)CC[C@H](NC(=O)[C@@H](N)CC(=O)O)C(=O)O [α-L-Asp-L-Gln] (H-Asp-Gln-OH) | tr | 0.05 |  |  |  |
| Gly-L-Ala-L-Tyr |  |  |  |  | Produced peptide ([1]; L-amino acid ester 100 mM, peptide (amine component) 150 mM): 1.7 mM; Produced peptide (Table 16, oligopeptide) ([2]; amine component 150 mM): 0.6 mM |
